Structures can show the parent of a compound that is named as a salt. Where two headings read alike, the source gives them in different places.

In patent US6342492B1, “Anti-viral triaza compounds and compositions” (The Research Foundation of State University of New York, priority 1995, dated 2002) one finds EC50, CC50 and melting point data, which are given here for 5 compounds.

One data set deals with Human Cytomegalovirus. The experiment in a line: Semi-automated CPE-inhibition assay for HCMV in human foreskin fibroblast cells. To be noted: Human betaherpesvirus 5. Type of data set: cell-based. On the procedure: (§1) Additional antiviral testing was carried out to test the efficacy of compounds of the invention against human cytomegalovirus (HCMV) and another herpesvirus, Variecella Zoster Virus(VZV). The compounds tested were compound (1), the HCl salt of compound (1), Compounds 211, 43, 213 and 214.

Data set [1] has as its system HIV strain 2h, a primary pediatric clinical isolate. As to the kind of experiment: Protein (p24) assay in PBMC cells with 2h. The following applies: Protein (p24) assay in PBMC cells, read-out: ED50 2h/PBMC. The class given is cell-based.
In another data set the test system is HIV strain MB48. As to the kind of experiment: Reverse transcriptase (RT) assay in MT-2 cells, HIV strain MB48. The class given is cell-based. To be noted: Reverse transcriptase (RT) assay in MT-2 cells, read-out: ED50 MB48/MT-2.
Data set [2] is described as follows: Inhibition of cell proliferation (cytotoxicity) in herpesvirus screening. Type of data set: cell-based, human. The following applies: human, human foreskin fibroblast cells, inhibit cell proliferation by 50%.
The next data set has as its system Varicella Zoster Virus. The experiment in a line: Plaque reduction assay for VZV (Ellen strain). The class given is cell-based. The following applies: Human alphaherpesvirus 3. The method, then: as §1
The test system of the next data set is HIV strain MD48. The experiment in a line: MAGI assay on HeLa-MAGIC cells (plaque inhibition). The class given is cell-based. The following applies: MAGI assay on HeLa-MAGIC cells (plaque inhibition), read-out: ED50 MD48/HeLa.
Where [3] appears, read: Human immunodeficiency virus 1, 2 h.
Where [4] appears, read: Human immunodeficiency virus 1, MT2.
Where [5] appears, read: HCMV CPE-inhibition screen, read-out: Human Cytomegalovirus CC50.
Where [6] appears, read: VZV screen, read-out: Varicella Zoster Virus CC50.

Broadly, the CC50 is the concentration giving 50% cytotoxicity. On to `C=C1CN(S(=O)(=O)c2ccccc2)CCCN(Cc2ccccc2)CCCN(S(=O)(=O)c2ccccc2)C1` [Compound 211, 9-Benzyl-3-methylene-1,5-dibenzenesulfonyl-1,5,9-triazacyclododecane], for which the EC50 in the data set on Human Cytomegalovirus was > 170 µM; in data set [1] (setting [3]), 0.5 µM; in the data set on HIV strain MB48 (setting [4]), 1.9 µM; in the data set with Varicella Zoster Virus, 91.7 µM; in the data set with HIV strain MD48 (Human immunodeficiency virus 1), 1.5 µM. For the same compound, the CC50 in data set [2] (setting [5]) and in data set [2] (setting [6]) was > 170 µM each time.

For orientation: melting point means the temperature of the solid-liquid transition. `O=S(=O)(NCCCN(CCCNS(=O)(=O)c1ccccc1)Cc1ccccc1)c1ccccc1` (as salt: hydrochloride) [Compound 210, N-Benzylbis(3-benzenesulfonamidopropyl)amine] registered a melting point of 135 to 136 °C.

With `C=C1CN(S(=O)(=O)c2ccccc2)CCCN(Cc2ccccc2)CCCN(S(=O)(=O)c2ccccc2)C1` (as salt: HCl) [Compound 211, 9-Benzyl-3-methylene-1,5-dibenzenesulfonyl-1,5,9-triazacyclododecane], the melting point is 135 to 136 °C.

As for `C=CCN(CCCN(CCCN(CC=C)S(=O)(=O)c1ccc(C)cc1)Cc1ccccc1)S(=O)(=O)c1ccc(C)cc1` [Compound 004, N-Benzylbis[3-(N′-2-propenyltoluenesulfonamido)propyl]amine dihydrogen sulfate], the EC50 stood at 0.5 µM in data set [1], 2.6 µM with HIV strain MB48 and 3.5 µM in the data set with HIV strain MD48.

Take `C=C1CN(S(=O)(=O)c2ccc(C)cc2)CCC[N+]([O-])(Cc2ccccc2)CCCN(S(=O)(=O)c2ccc(C)cc2)C1` [Compound 43, 9-Benzyl-3-methylene-1,5-ditosyl-1,5,9-triazacyclododecane-9-oxide]: the EC50 in the data set on Human Cytomegalovirus was > 170 µM; in data set [1] (setting [3]), 0.5 µM; in the data set on HIV strain MB48 (setting [4]) it was 1.8 µM; with Varicella Zoster Virus, 24.3 µM; in the data set on HIV strain MD48 (Human immunodeficiency virus 1) it was 3.5 µM. The CC50 in data set [2] (setting [5]) and in data set [2] (setting [6]) was > 170 µM throughout.
